This note sets out measurements from patent US10463632B2, “Method for treating a neurovascular complication of diabetes mellitus” (KING SAUD UNIVERSITY, priority 2016, dated 2019).

Holding throughout (type): in vivo, Sprague Dawley rats
Test [1] has as its system Blood-Retinal Barrier in STZ-Induced Diabetic Rats. Briefly: Measurement of Blood Retinal Barrier (BRB) breakdown with FITC-conjugated dextran. The following applies: thymoquinone 2 mg/kg on alternate days, compared with diabetic retinas, FIG. 3. How it is done:
Healthy Sprague Dawley rats (150-200 g) were used for the trials. Animals were issued from Central Animal House Facility of the College of Pharmacy, King Saud University and were kept in standard plastic animal cages in groups of 6 animals each with 12 hours light and dark cycle at 25±2° C. The rats were fed on standard rat chow and provided water ad libitum. The animals were acclimatized to laboratory conditions for a week prior to experiments. Diabetes was induced in overnight fasted rats by administration of Streptozotocin (STZ) at dose of 55 mg/kg intraperitoneally in citric acid buffer (pH 4.5). After one hour of STZ administration, the animals were allowed to feed ad libitum. […] Relevant biochemical parameters including serum creatinine, uric acid, alanine aminotransferase (ALT), aspartate aminotransferase (AST), alkaline phosphatase and bilirubin were assessed using colorimetric methods. Rat retinas were analyzed for Blood Retinal Barrier (BRB) breakdown after 3 weeks of thymoquinone dosing using fluorescein isothiocyanate (FITC)-conjugated dextran as previously described in the prior art. […] Fluorescence was measured using a Spectra Max Gemini-XPS with excitation and emission wavelengths of 485 nm and 538 nm, respectively, with PBS as a blank. Blood retinal barrier breakdown was calculated using the following equation (1) with the results being expressed in μL g^−1 hr^−1. […]

Test [2] relates to reactive oxygen species (ROS). Briefly: Reactive Oxygen Species (ROS) measurement in retinal tissue homogenates (DCF fluorescence). The following applies: retinas of diabetic animals treated with thymoquinone; FIG. 2. How it is done: (§1) Healthy Sprague Dawley rats (150-200 g) were used for the trials. Animals were issued from Central Animal House Facility of the College of Pharmacy, King Saud University and were kept in standard plastic animal cages in groups of 6 animals each with 12 hours light and dark cycle at 25±2° C. The rats were fed on standard rat chow and provided water ad libitum. The animals were acclimatized to laboratory conditions for a week prior to experiments. Diabetes was induced in overnight fasted rats by administration of Streptozotocin (STZ) at dose of 55 mg/kg intraperitoneally in citric acid buffer (pH 4.5). After one hour of STZ administration, the animals were allowed to feed ad libitum. The animals were kept under observation and fasting blood glucose levels were estimated before 72 hours of STZ treatment. […] Relevant biochemical parameters including serum creatinine, uric acid, alanine aminotransferase (ALT), aspartate aminotransferase (AST), alkaline phosphatase and bilirubin were assessed using colorimetric methods.
Reactive Oxygen Species (ROS) generation was measured in retinal tissue homogenates using a 2′,7′-dichlorofluorescein-diacetate (DCHFDA) as is known in the art. […] Fluorescence was measured using a SpectraMax Gemini-XPS every 15 min for 1 hour with excitation and emission wavelengths of 488 nm and 525 nm, respectively.

Test [3] has as its system cleaved caspase-3. Briefly: Western blot of retinal cleaved caspase-3 in diabetic rats. The conditions noted are these: diabetic rat retinas, thymoquinone 2 mg/kg i.p. alternate days, three weeks; FIG. 1D. On the procedure: as §1, with “libitum.” for “libitum. The animals were kept under observation and fasting blood glucose levels were estimated before 72 hours of STZ treatment.”, “methods. […] After incubations with secondary antibodies, membranes were washed four times with TBS-T (5 min each) and the immunoreactivity of bands was visualized on a high-performance chemiluminescence machine by using enhanced chemiluminescence plus Luminol and quantified by densitometric analysis using image processing and analysis in GeneTools. As a control, the blots were stripped and detected with a mouse monoclonal anti-β-actin antibody (1:2000). […]” for “methods.”

Test [4] deals with brain derived neurotrophic factor (BDNF). Kind of test: Western blot of retinal BDNF expression in diabetic rats. The conditions noted are these: diabetic rat retinas, thymoquinone 2 mg/kg i.p. alternate days, three weeks; FIG. 1A. How it is done:
as §1, with “libitum.” for “libitum. The animals were kept under observation and fasting blood glucose levels were estimated before 72 hours of STZ treatment.”, “methods. […] After incubations with secondary antibodies, membranes were washed four times with TBS-T (5 min each) and the immunoreactivity of bands was visualized on a high-performance chemiluminescence machine by using enhanced chemiluminescence plus Luminol and quantified by densitometric analysis using image processing and analysis in GeneTools. As a control, the blots were stripped and detected with a mouse monoclonal anti-β-actin antibody (1:2000). […]” for “methods.”
(In general: In western blotting, separated proteins are transferred to a membrane and probed.)

Test [5] deals with Streptozotocin (STZ)-induced diabetic rats. Briefly: Blood glucose concentration in STZ-induced diabetic rats with thymoquinone administration. The conditions noted are these: TQ 2 mg/Kg intraperitoneally on alternate days. How it is done:
(§2) Healthy Sprague Dawley rats (150-200 g) were used for the trials. Animals were issued from Central Animal House Facility of the College of Pharmacy, King Saud University and were kept in standard plastic animal cages in groups of 6 animals each with 12 hours light and dark cycle at 25±2° C. The rats were fed on standard rat chow and provided water ad libitum. The animals were acclimatized to laboratory conditions for a week prior to experiments. Diabetes was induced in overnight fasted rats by administration of Streptozotocin (STZ) at dose of 55 mg/kg intraperitoneally in citric acid buffer (pH 4.5). After one hour of STZ administration, the animals were allowed to feed ad libitum. The animals were kept under observation and fasting blood glucose levels were estimated […] 72 hours of STZ treatment. Animals showing blood glucose levels >350 mg/dl were considered as diabetic and were used for further trials. Diabetic rats were divided into two groups (10 rats per group) at random. Group I served as diabetic control. Group II were administered thymoquinone (2 mg/kg intraperitoneally) in alternate days for three weeks. Healthy rats were also kept as normal controls. Relevant biochemical parameters including serum creatinine, uric acid, alanine aminotransferase (ALT), aspartate aminotransferase (AST), alkaline phosphatase and bilirubin were assessed using colorimetric methods.

For test [6], the system named is tyrosine hydroxylase (TH). Kind of test: Western blot of retinal tyrosine hydroxylase expression in diabetic rats. The following applies: diabetic rat retinas, thymoquinone 2 mg/kg i.p. alternate days, three weeks; FIG. 1B. On the procedure:
as §1, with “libitum.” for “libitum. The animals were kept under observation and fasting blood glucose levels were estimated before 72 hours of STZ treatment.”, “methods. […] After incubations with secondary antibodies, membranes were washed four times with TBS-T (5 min each) and the immunoreactivity of bands was visualized on a high-performance chemiluminescence machine by using enhanced chemiluminescence plus Luminol and quantified by densitometric analysis using image processing and analysis in GeneTools. As a control, the blots were stripped and detected with a mouse monoclonal anti-β-actin antibody (1:2000). […]” for “methods.”

In test [7] the test system is nerve growth factor receptor (NGFR). Briefly: Western blot of retinal NGFR expression in diabetic rats. The conditions noted are these: diabetic rat retinas, thymoquinone 2 mg/kg i.p. alternate days, three weeks; FIG. 1C. How it is done: as §1, with “libitum.” for “libitum. The animals were kept under observation and fasting blood glucose levels were estimated before 72 hours of STZ treatment.”, “methods. […] After incubations with secondary antibodies, membranes were washed four times with TBS-T (5 min each) and the immunoreactivity of bands was visualized on a high-performance chemiluminescence machine by using enhanced chemiluminescence plus Luminol and quantified by densitometric analysis using image processing and analysis in GeneTools. As a control, the blots were stripped and detected with a mouse monoclonal anti-β-actin antibody (1:2000). […]” for “methods.”

Test [8] concerns Streptozotocin (STZ)-induced diabetic rats. Briefly: Kidney and liver function tests (colorimetric serum biochemistry) in STZ-induced diabetic rats. How it is done: as §2
Where [9] appears, read: diabetic rats treated with TQ 2 mg/kg i.p. on alternate days for three weeks.

As to `CC1=CC(=O)C(C(C)C)=CC1=O` [thymoquinone, 2-Isopropyl-5-methylbenzo-1,4-quinone], the “effect of diabetes on BRB breakdown (retinal vascular permeability)” value in test [1] is on record as “significantly attenuated”. For the same compound, the “ROS generation (DCF retinal levels)” value in test [2] is reported as “significantly attenuated”. Besides, in test [3], the “retinal cleaved caspase-3 (diabetes-induced up-regulation of about 52%)” value was “normalized”. Moreover, the “retinal BDNF expression (diabetes-induced down-regulation of about 65%)” value in test [4] was “normalized”. In addition, the “Glucose Concentration” value in test [5] (after 7 days of TQ treatment) was determined as 580.58 ± 2.40 mg/dL. In addition, the “Glucose Concentration” value in test [5] (after 14 days of TQ treatment) came out at 559.55 ± 1.29 mg/dL. Further, in test [5] (after 21 days of TQ treatment), the “Glucose Concentration” value was determined as 495.10 ± 5.71 mg/dL. In test [6], the “retinal TH levels (diabetes-induced decrease of about 32%)” value is reported as “normalized”. The “retinal NGFR expression (diabetes-induced increase of about 75%)” value in test [7] is “normalized”. Further, the “kidney and liver function tests versus untreated diabetic animals” value in test [8] (diabetic rats that received thymoquinone) is on record as “more normal”. In test [8] (setting [9]), the “ALKALINE Phos” value was determined as 179.08 ± 4.51 U/l, the ALT turned out to be 134.43 ± 5.21 U/l, the AST was determined as 138.48 ± 2.94 U/l and the Bilirubin worked out at 3.23 ± 0.04 mg/dL. In addition, in test [8] (setting [9]), the Creatinine was 0.62 ± 0.05 mg/dL and the Uric acid was found to be 4.99 ± 0.07 mg/dL.
